SMILES strings stand for the structures.

The first assay addresses T1, ER (Homo sapiens, UniProt P03372).
T1 construct: host or cells: T47D and MCF7 human breast cancer cells
T1 sequence (P03372 1-595): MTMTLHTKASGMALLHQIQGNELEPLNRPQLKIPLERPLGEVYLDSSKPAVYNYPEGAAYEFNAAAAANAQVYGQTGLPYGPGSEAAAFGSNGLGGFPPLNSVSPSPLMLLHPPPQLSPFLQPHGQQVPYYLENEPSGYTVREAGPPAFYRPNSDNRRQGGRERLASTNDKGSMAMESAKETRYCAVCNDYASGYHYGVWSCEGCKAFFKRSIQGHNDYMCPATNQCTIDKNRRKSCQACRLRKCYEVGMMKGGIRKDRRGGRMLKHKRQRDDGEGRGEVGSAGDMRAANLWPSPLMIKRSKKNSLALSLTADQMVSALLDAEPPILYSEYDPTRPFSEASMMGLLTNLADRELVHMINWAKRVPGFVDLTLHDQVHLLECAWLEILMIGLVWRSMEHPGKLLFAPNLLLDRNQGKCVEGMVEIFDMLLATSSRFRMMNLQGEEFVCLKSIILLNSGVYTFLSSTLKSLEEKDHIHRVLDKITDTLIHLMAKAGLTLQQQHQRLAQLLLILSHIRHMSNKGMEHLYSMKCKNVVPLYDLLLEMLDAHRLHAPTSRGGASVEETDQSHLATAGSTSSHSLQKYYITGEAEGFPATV
The assay is described as follows: ER degradation activity, in-cell western blot analysis in T47D cells. The following applies: 16 hours, Table A does not say which cell line (T47D or MCF7), read-out: Potency (DC50). The class given is cell-based. A digest of the protocol: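 In-cell western, T47D; compounds 16 h, 0.5% DMSO final; anti-rabbit-680/anti-mouse-800 secondaries, 1 h RT, dark; read on CLX imager. ER % vs untreated/DMSO wells (100%).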
Usually DC50 stands for the concentration at which degradation of the target reaches its halfway point. As to `O=C1CCC(N2C(=O)c3cc4c(cc3C2=O)CN(CC(=O)N2CC3(CCN(c5ccc([C@@H]6c7ccc(O)cc7CC[C@@H]6c6ccccc6)cc5)CC3)C2)C4)C(=O)N1` (stereo partly drawn) [E 148, 2-(2,6-dioxopiperidin-3-yl)-6-(2-(7-(4-((1R,2S)-6-hydroxy-2-phenyl-1,2,3,4-tetrahydronaphthalen-1-yl)phenyl)-2,7-diazaspiro[3.5]nonan-2-yl)-2-oxoethyl)-6,7-dihydropyrrolo[3,4-f]isoindole-1,3(2H,5H)-dione], the DC50 is less than 10 nM.
Still for that read-out and setting: to `C[C@@H]1Cc2c([nH]c3ccccc23)[C@@H](c2c(F)cc(N3CCC4(CC3)CC(C(=O)N3CCC(N5Cc6cc7c(cc6C5)C(=O)N(C5CCC(=O)NC5=O)C7=O)CC3)C4)cc2F)N1CC(F)F` (stereo partly drawn) [E 100, 6-(1-(7-(4-((1R,3R)-2-(2,2-difluoroethyl)-3-methyl-2,3,4,9-tetrahydro-1H-pyrido[3,4-b]indol-1-yl)-3,5-difluorophenyl)-7-azaspiro[3.5]nonane-2-carbonyl)piperidin-4-yl)-2-(2,6-dioxopiperidin-3-yl)-6,7-dihydropyrrolo[3,4-f]isoindole-1,3(2H,5H)-dione] belongs less than 10 nM.
Still for that read-out and setting: the result for `O=C1CCC(N2C(=O)c3cc4c(cc3C2=O)CN(CC(=O)N2CCC3(CC2)CCN(c2ccc(C(=C(CCCl)c5ccc(F)cc5)c5ccc(O)cc5)cc2)CC3)C4)C(=O)N1` (stereo not shown) [E 196, 6-(2-(9-(4-(4-chloro-2-(4-fluorophenyl)-1-(4-hydroxyphenyl)but-1-en-1-yl)phenyl)-3,9-diazaspiro[5.5]undecan-3-yl)-2-oxoethyl)-2-(2,6-dioxopiperidin-3-yl)-6,7-dihydropyrrolo[3,4-f]isoindole-1,3(2H,5H)-dione] reads 10 to 100 nM.
Still for that read-out and setting: to `C[C@@H]1Cc2c([nH]c3ccccc23)[C@@H](c2c(F)cc(N3CCC(C(=O)N4CCC(CN5Cc6cc7c(cc6C5)C(=O)N(C5CCC(=O)NC5=O)C7=O)CC4)CC3)cc2F)N1CC(F)F` (stereo partly drawn) [E 233, 6-((1-(1-(4-((1R,3R)-2-(2,2-difluoroethyl)-3-methyl-2,3,4,9-tetrahydro-1H-pyrido[3,4-b]indol-1-yl)-3,5-difluorophenyl)piperidine-4-carbonyl)piperidin-4-yl)methyl)-2-(2,6-dioxopiperidin-3-yl)-6,7-dihydropyrrolo[3,4-f]isoindole-1,3(2H,5H)-dione] belongs more than 100 nM.
`O=C1CCC(N2C(=O)c3cc4c(cc3C2=O)CN(CC(=O)N2CCC(n3cc(-c5ccc([C@@H]6c7ccc(O)cc7CC[C@@H]6c6ccccc6)cc5)cn3)CC2)C4)C(=O)N1` (stereo partly drawn) [E 214, 2-(2,6-dioxopiperidin-3-yl)-6-(2-(4-(4-(4-((1R,2S)-6-hydroxy-2-phenyl-1,2,3,4-tetrahydronaphthalen-1-yl)phenyl)-1H-pyrazol-1-yl)piperidin-1-yl)-2-oxoethyl)-6,7-dihydropyrrolo[3,4-f]isoindole-1,3(2H,5H)-dione]: the 50% degradation concentration (DC50) was more than 100 nM.
Still for that read-out and setting: the result for `C[C@@H]1Cc2c([nH]c3ccccc23)[C@@H](c2ccc(C3CCC(C(=O)N4CCC(N5Cc6cc7c(cc6C5)C(=O)N(C5CCC(=O)NC5=O)C7=O)CC4)CC3)nc2)N1CC(F)F` (stereo partly drawn) [E 319, 6-(1-(4-(5-((1R,3R)-2-(2,2-difluoroethyl)-3-methyl-2,3,4,9-tetrahydro-1H-pyrido[3,4-b]indol-1-yl)pyridin-2-yl)cyclohexane-1-carbonyl)piperidin-4-yl)-2-(2,6-dioxopiperidin-3-yl)-6,7-dihydropyrrolo[3,4-f]isoindole-1,3(2H,5H)-dione] reads more than 100 nM.
Regarding `C[C@@H]1Cc2c([nH]c3ccccc23)[C@@H](c2c(F)cc(N3CC(C(=O)N4CCC(CN5Cc6cc7c(cc6C5)C(=O)N(C5CCC(=O)NC5=O)C7=O)CC4)C3)cc2F)N1CC(F)F` (stereo partly drawn) [E 121, 6-((1-(1-(4-((1R,3R)-2-(2,2-difluoroethyl)-3-methyl-2,3,4,9-tetrahydro-1H-pyrido[3,4-b]indol-1-yl)-3,5-difluorophenyl)azetidine-3-carbonyl)piperidin-4-yl)methyl)-2-(2,6-dioxopiperidin-3-yl)-6,7-dihydropyrrolo[3,4-f]isoindole-1,3(2H,5H)-dione], the 50% degradation concentration (DC50) was less than 10 nM.
Same read-out and setting: to `C[C@@H]1Cc2c([nH]c3ccccc23)[C@@H](c2c(F)cc(N3CCC4(CC3)CN(C(=O)CN3Cc5cc6c(cc5C3)C(=O)N(C3CCC(=O)NC3=O)C6=O)C4)cc2F)N1CC(F)F` (stereo partly drawn) [E 111, 6-(2-(7-(4-((1R,3R)-2-(2,2-difluoroethyl)-3-methyl-2,3,4,9-tetrahydro-1H-pyrido[3,4-b]indol-1-yl)-3,5-difluorophenyl)-2,7-diazaspiro[3.5]nonan-2-yl)-2-oxoethyl)-2-(2,6-dioxopiperidin-3-yl)-6,7-dihydropyrrolo[3,4-f]isoindole-1,3(2H,5H)-dione] belongs less than 10 nM.
Take `C[C@@H]1Cc2c([nH]c3ccccc23)[C@@H](c2c(F)cc(N3CCC4(CCN(C(=O)CN5Cc6cc7c(cc6C5)C(=O)N(C5CCC(=O)NC5=O)C7=O)CC4)CC3)cc2F)N1CC(F)F` (stereo partly drawn) [E 112, 6-(2-(9-(4-((1R,3R)-2-(2,2-difluoroethyl)-3-methyl-2,3,4,9-tetrahydro-1H-pyrido[3,4-b]indol-1-yl)-3,5-difluorophenyl)-3,9-diazaspiro[5.5]undecan-3-yl)-2-oxoethyl)-2-(2,6-dioxopiperidin-3-yl)-6,7-dihydropyrrolo[3,4-f]isoindole-1,3(2H,5H)-dione]: the DC50 is less than 10 nM.
On the same count and under the same terms, the result for `O=C1CCC(N2C(=O)c3cc4c(cc3C2=O)CN(CC2CCN(CC3(F)CN(c5ccc([C@@H]6c7ccc(O)cc7CC[C@@H]6c6ccccc6)cc5)C3)CC2)C4)C(=O)N1` (stereo partly drawn) [E 286, 2-(2,6-dioxopiperidin-3-yl)-6-((1-((3-fluoro-1-(4-((1R,2S)-6-hydroxy-2-phenyl-1,2,3,4-tetrahydronaphthalen-1-yl)phenyl)azetidin-3-yl)methyl)piperidin-4-yl)methyl)-6,7-dihydropyrrolo[3,4-f]isoindole-1,3(2H,5H)-dione] reads more than 100 nM; that for `O=C1CCC(N2C(=O)c3cc4c(cc3C2=O)CN(CC2(F)CCN(CC3CCN(c5ccc([C@@H]6c7ccc(O)cc7CC[C@@H]6c6ccccc6)cc5)CC3)CC2)C4)C(=O)N1` (stereo partly drawn) [E 211, 2-(2,6-dioxopiperidin-3-yl)-6-((4-fluoro-1-((1-(4-((1R,2S)-6-hydroxy-2-phenyl-1,2,3,4-tetrahydronaphthalen-1-yl)phenyl)piperidin-4-yl)methyl)piperidin-4-yl)methyl)-6,7-dihydropyrrolo[3,4-f]isoindole-1,3(2H,5H)-dione], more than 100 nM; that for `C[C@@H]1Cc2cc(O)ccc2[C@@H](c2c(F)cc(N3CCC(CN4CC(N5Cc6cc7c(cc6C5)C(=O)N(C5CCC(=O)NC5=O)C7=O)C4)CC3)cc2F)N1CC(F)F` (stereo partly drawn) [E 47, 6-(1-((1-(4-((1S,3R)-2-(2,2-difluoroethyl)-6-hydroxy-3-methyl-1,2,3,4-tetrahydroisoquinolin-1-yl)-3,5-difluorophenyl)piperidin-4-yl)methyl)azetidin-3-yl)-2-(2,6-dioxopiperidin-3-yl)-6,7-dihydropyrrolo[3,4-f]isoindole-1,3(2H,5H)-dione], more than 100 nM.
Same read-out and setting: to `O=C1CCC(N2C(=O)c3cc4c(cc3C2=O)CN(C(=O)CN2CCC3(CC2)CCN(c2ccc([C@@H]5c6ccc(O)cc6CC[C@@H]5c5ccccc5)c(F)c2)C3)C4)C(=O)N1` (mixture of isomers) [E 153, Rac-2-(2,6-dioxopiperidin-3-yl)-6-(2-(2-(3-fluoro-4-((1S,2S)-6-hydroxy-2-phenyl-1,2,3,4-tetrahydronaphthalen-1-yl)phenyl)-2,8-diazaspiro[4.5]decan-8-yl)acetyl)-6,7-dihydropyrrolo[3,4-f]isoindole-1,3(2H,5H)-dione] belongs more than 100 nM; to `O=C1CCC(N2Cc3cc4c(cc3C2=O)CN(C(=O)[C@H]2CC[C@@H](N3CC(Nc5ccc([C@@H]6c7ccc(O)cc7CC[C@@H]6c6ccccc6)cc5)C3)CC2)C4)C(=O)N1` (single isomer, unassigned) [E 361], more than 100 nM; to `C[C@@H]1Cc2cc(O)ccc2C(c2ccc(N3CCC(C(=O)N4CCC(N5Cc6cc7c(cc6C5)C(=O)N(C5CCC(=O)NC5=O)C7=O)CC4)CC3)cn2)N1CC(F)F` (stereo partly drawn) [E 322, 6-(1-(1-(6-((3R)-2-(2,2-difluoroethyl)-6-hydroxy-3-methyl-1,2,3,4-tetrahydroisoquinolin-1-yl)pyridin-3-yl)piperidine-4-carbonyl)piperidin-4-yl)-2-(2,6-dioxopiperidin-3-yl)-6,7-dihydropyrrolo[3,4-f]isoindole-1,3(2H,5H)-dione], more than 100 nM.

Still in this assay, the particulars now being: compounds 16 hours, Table A does not say whether T47D or MCF7, read-out: Potency (DC50).
For `C[C@@H]1Cc2c([nH]c3ccccc23)[C@@H](c2ccc(C3=CCC(C(=O)N4CCC(N5Cc6cc7c(cc6C5)C(=O)N(C5CCC(=O)NC5=O)C7=O)CC4)CC3)cc2F)N1CC(C)(F)F` (stereo partly drawn) [E 482, 6-(1-(4′-((1R,3R)-2-(2,2-difluoropropyl)-3-methyl-2,3,4,9-tetrahydro-1H-pyrido[3,4-b]indol-1-yl)-3′-fluoro-2,3,4,5-tetrahydro-[1,1′-biphenyl]-4-carbonyl)piperidin-4-yl)-2-(2,6-dioxopiperidin-3-yl)-6,7-dihydropyrrolo[3,4-f]isoindole-1,3(2H,5H)-dione], the DC50 was more than 100 nM.

The record behind these values is patent US20240190880A1 (THE REGENTS OF THE UNIVERSITY OF MICHIGAN, priority 2021, published 2024).
